Like-named read-outs stand apart in the source and are kept apart here.
Experiments:
rice stem borer = assay: Insecticidal effect on rice stem borer, 3rd-instar larvae (rice seedling dip); assay type: in vivo, Chilo suppressalis; conditions: after 72 hours, 25°C
Procedure: (§1) (A) A wettable powder prepared as described in Formulation Example 5 was diluted with water to a predetermined concentration. Rice seedlings were dipped into the dilute solution and placed in a 60 ml volume cup made of vinyl chloride resin, and 10 3rd-instar larvae of rice stem borer were put in each cup. The cups were capped and maintained at 25°C.
as §1, with “(B) A” for “(A) A”, “Example 7” for “Example 5”

tobacco cutworm [1] = assay: Insecticidal effect on tobacco cutworm (cabbage leaf dip); assay type: in vivo, Prodenia litura; conditions: after 48 hours, 25°C
Procedure: (§2) (A) An emulsifiable concentrate prepared as described in Formulation Example 1 was diluted with water to a predetermined concentration and then cabbage leaves were dipped into the dilute solution and dried in air and placed in a 60 ml volume cup made of vinyl chloride resin. 3rd-instar larvae of tobacco cutworm were put in each cup and maintained at 25°C. After 48 hours, percent mortality was assessed. The test was replicated 3 times for each compound using 30 insects in each test.
as §2, with “(B)” for “(A)”, “3” for “1”

apple leaf miner = assay: Insecticidal effect on apple leaf miner (sprayed apple seedling); assay type: in vivo, Lithocolletis ringoniella; conditions: Phyllonorycter ringoniella, 336 h, 500 ppm, fourteen days after spraying
Procedure: (§3) (A) A dilute water suspension of a wettable powder prepared as described in Formulation Example 5 was sufficiently sprayed using a spray-gun on a seedling of an apple tree planted in a bisque flower pot to which plant larvae of apple leaf miner just after hatching were parasitic. Thereafter the pots were placed in a green house. Fourteen days after the spraying, bores made by larvae were broken and percent mortality was assessed for all the leaves of each seedling. Three pots were used for each treatment.
as §3, with “(B)” for “(A)”, “7” for “5”

Apple = assay: Phytotoxicity on various crops; assay type: in vivo; set-up: key: Symbol — indicates that no toxicity was observed; conditions: 500 ppm sprayed; checked visually after 10 days
Procedure: (§4) An emulsifiable concentrate prepared as described in Formulation Example 2 was diluted with water to a concentration of 500 ppm based on the effective ingredient and sprayed sufficiently using a spray-gun onto various test plants. The plants were kept in a green house. After 10 days from the application phytotoxicity was checked visually. The test was replicated 3 times for each compound.

Beet = assay: Phytotoxicity on various crops; assay type: in vivo; set-up: key: Symbol — indicates that no toxicity was observed; conditions: 500 ppm sprayed; checked visually after 10 days
Procedure: as §4

Cabbage = assay: Phytotoxicity on various crops; assay type: in vivo; set-up: key: Symbol — indicates that no toxicity was observed; conditions: 500 ppm sprayed; checked visually after 10 days
Procedure: as §4

Cotton = assay: Phytotoxicity on various crops; assay type: in vivo; set-up: key: Symbol — indicates that no toxicity was observed; conditions: 500 ppm sprayed; checked visually after 10 days
Procedure: as §4

Cucumber = assay: Phytotoxicity on various crops; assay type: in vivo; set-up: key: Symbol — indicates that no toxicity was observed; conditions: 500 ppm sprayed; checked visually after 10 days
Procedure: as §4

Green Pepper = assay: Phytotoxicity on various crops; assay type: in vivo; set-up: key: Symbol — indicates that no toxicity was observed; conditions: 500 ppm sprayed; checked visually after 10 days
Procedure: as §4

Kidney Bean = assay: Phytotoxicity on various crops; assay type: in vivo; set-up: key: Symbol — indicates that no toxicity was observed; conditions: 500 ppm sprayed; checked visually after 10 days
Procedure: as §4

Rice = assay: Phytotoxicity on various crops; assay type: in vivo; set-up: key: Symbol — indicates that no toxicity was observed; conditions: 500 ppm sprayed; checked visually after 10 days
Procedure: as §4

Tea = assay: Phytotoxicity on various crops; assay type: in vivo; set-up: key: Symbol — indicates that no toxicity was observed; conditions: 500 ppm sprayed; checked visually after 10 days
Procedure: as §4

Tomato = assay: Phytotoxicity on various crops; assay type: in vivo; set-up: key: Symbol — indicates that no toxicity was observed; conditions: 500 ppm sprayed; checked visually after 10 days
Procedure: as §4

egg plant = assay: Phytotoxicity on various crops; assay type: in vivo; set-up: key: Symbol — indicates that no toxicity was observed; conditions: 500 ppm sprayed; checked visually after 10 days
Procedure: as §4

tobacco cutworm [2] = assay: Long-lasting insecticidal effect on tobacco cutworm (sprayed cabbage plantlet); assay type: in vivo, Prodenia litura; conditions: Table 6, concentration 500 (unit not given), mortality after 48 hours; for Percent Mortality After Application 3rd Day: leaves cut on 3rd day; for Percent Mortality After Application 5th Day: leaves cut on 5th day; for Percent Mortality After Application 7th Day: leaves cut on 7th day; for Percent Mortality After Application 10th Day: leaves cut on 10th day
Procedure: (§5) (A) An emulsifiable concentrate prepared as described in Formulation Example 2 was diluted with water to a predetermined concentration and sprayed onto a cabbage plantlet in a flower pot of 15 cm in diameter using a spray-gun sufficiently and the tests plants were placed in a green house. The leaves of the plants were cut off on the 3rd, 5th, 7th, 10th and 15th day and placed in a 60 ml volume cup and 3rd-instar larvae of tobacco cutworm were put in each cup. The cups were kept in an incubator (25°C). After 48 hours, percent mortality was assessed. The tests was replicated 3 times for each compound using 30 insects in each test.
as §5, with “(B) An” for “(A) An”, “Example 3” for “Example 2”, “and 1 5th” for “and 15th”

diamond back moth = assay: Insecticidal effect on diamond-back moth (cabbage leaf dip); assay type: in vivo, Plutella xylostella; conditions: 100 ppm, after 72 hours, 25°C
Procedure: (§6) (A) An emulsifiable concentrate prepared as described in Formulation Example 1 was diluted with water to a predetermined concentration and leaves of a cabbage were dipped into the dilute emulsion for 10 seconds followed by drying in air, and charged in a 60 ml volume cup made of vinyl chloride resin. Then, thirty 3rd-instar larvae of diamond back moth were put in each cup, and the cups were kept at 25°C. After 72 hours, percent mortality was assessed and the test was replicated 3 times for each treatment.
as §6, with “(B) An” for “(A) An”, “Example 4” for “Example 1”

smaller tea tortrix = assay: Insecticidal effect on smaller tea tortrix (apple leaf dip); assay type: in vivo; conditions: Adoxophyes orana, foliar, read-out: Percent Mortality
Procedure: Leaves of an apple tree were dipped into a dilute water suspension of a wettable powder prepared as described in Formulation Example 5. After drying in air, the leaves were charged in a 60 ml volume cup made of vinyl chloride resin, and […] 3rd-instar larvae of smaller tea tortrix were put in each cup. The cups were capped and kept at 25°C. After 72 hours, the number of the surviving insects and the dead insects were recorded to determine percent mortality. In each treatment, 3 cups and 30 insects were used in total.

[3] = Table 1, 100 ppm, wettable powder as Formulation Example 5
[4] = Table 1, 500 ppm, wettable powder as Formulation Example 5
[5] = Table 2, 100 ppm, wettable powder as Formulation Example 7
[6] = Table 4, 100 ppm, emulsifiable concentrate as Formulation Example 3
[7] = Table 3, 500 ppm, emulsifiable concentrate as Formulation Example 1
[8] = Table 8, emulsifiable concentrate as Formulation Example 4
[9] = Table 9, 100 ppm, after 72 hours, 25°C, wettable powder as Formulation Example 5

| SMILES | Percent Mortality (%) (rice stem borer; [3]) | Percent Mortality (%) (rice stem borer; [4]) | Percent Mortality (%) (rice stem borer; [5]) | Percent Mortality (%) (tobacco cutworm [1]; [6]) | Phytotoxicity: Apple (Apple) | Phytotoxicity: Beet (Beet) | Phytotoxicity: Cabbage (Cabbage) | Phytotoxicity: Cotton (Cotton) | Phytotoxicity: Cucumber (Cucumber) | Phytotoxicity: Green Pepper (Green Pepper) | Phytotoxicity: Kidney Bean (Kidney Bean) | Phytotoxicity: Rice (Rice) | Phytotoxicity: Tea (Tea) | Phytotoxicity: Tomato (Tomato) | Phytotoxicity: Egg Plant (egg plant) | Percent Mortality (%) (tobacco cutworm [1]; [7]) | Percent Mortality After Application 3rd Day (tobacco cutworm [2]) [%] | Percent Mortality After Application 5th Day (tobacco cutworm [2]) [%] | Percent Mortality After Application 7th Day (tobacco cutworm [2]) [%] | Percent Mortality After Application 10th Day (tobacco cutworm [2]) [%] | also measured |
| --- | --- | --- | --- | --- | --- | --- | --- | --- | --- | --- | --- | --- | --- | --- | --- | --- | --- | --- | --- | --- | --- |
| CCOP(=O)(Oc1ccc2c(c1)OC(CC)=C(C)C2(CC)CC)SC(C)CC (stereo not drawn) [Compound No. 19] | 100 | 100 | 100 | 100 | — | — | — | — | — | — | — | — | — | — | — |  |  |  |  |  | mortality at 500 ppm (apple leaf miner; Table 10, wettable powder as Formulation Example 5, read-out: Percent Morality (%)): 100% |
| CCCSP(=O)(OCC)Oc1cccc2c1C(C)=CC(C)(C)O2 (stereo not drawn) [Compound No. 22] | 100 | 100 | 100 | 100 | — | — | — | — | — | — | — | — | — | — | — | 100 | 100 | 100 | 73.3 | 53.3 | Percent Mortality After Application Immediately after Application (tobacco cutworm [2]): 100%; Percent Mortality (%) (diamond back moth; Table 7, emulsifiable concentrate as Formulation Example 1): 100%; Percent Mortality (%) (diamond back moth; [8]): 100%; mortality at 100 ppm (smaller tea tortrix; [9]): 100% |
| CCC(C)SP(=O)(OC)Oc1ccc2c(c1)OC(C)(C)C=C2C (stereo not drawn) [Compound No. 24] |  |  | 100 | 100 | — | — | — | — | — | — | — | — | — | — | — |  | 100 | 93.3 | 60.0 | 23.3 | Percent Mortality After Application Immediately after Application (tobacco cutworm [2]): 100%; Percent Mortality (%) (diamond back moth; [8]): 100%; mortality at 500 ppm (apple leaf miner; Table 11, wettable powder as Formulation Example 7, read-out: Percent Mortality (%)): 100% |
| CCOP(=S)(OCC)Oc1cc(C)nc(C(C)C)n1 [Diazinon, 0,0-diethyl (O-2-isopropyl-6-methyl-pyrimidin-4-yl)phosphorothioate, reference compound] |  |  |  |  |  |  |  |  |  |  |  |  |  |  |  |  |  |  |  |  | mortality at 100 ppm (smaller tea tortrix; 72 h): 43.3% |
| CCOP(=O)(Oc1ccc2c(c1)OC(C)=CC2(C)C)SC(C)C (stereo not drawn) [compound 14] |  | 100 |  |  | — | — | — | — | — | — | — | — | — | — | — | 100 |  |  |  |  | mortality at 100 ppm (smaller tea tortrix; [9]): 83.3% |

— patent EP0054589B1, “Organic phosphoric acid ester derivatives, a process for preparing the same and insecticidal, miticidal or nematocidal compositions containing the same” (priority 1980, dated 1982)
